Earlier results, collected in EP1368044B1, “IMMUNOMODULATOR FOR THE MANAGEMENT OF HUMAN IMMUNODEFICIENCY VIRUS (HIV) DISEASE/INFECTION” (Bakulesh, Mafatlal Khamar, priority 2002, dated 2002).
Ends that are not written are not given here.

System: HIV
Settings: along with interleukin-2

Substance: Thymosin α1: a 28-aminoacid peptide (SDAAVDTSSEITTKDLKEKKEVVEEAEN; ends and bridges not checked; UniProt P06454 2-29, looked up)
- efficacy to improve CD4: no significant effect
